Measured values as given in ChEMBL document CHEMBL3351789, “Triazolopyridines as selective JAK1 inhibitors: from hit identification to GLPG0634” (J Med Chem, 2014).
Values after ≈ are worked out from the molar mass of the structure shown. Each block holds one compound with its values, some of them ahead of it. Active and inactive are the calls of the source. The rule behind the calls is not given here.

Experiments:
[1] = Kinetic solubility of the compound at pH 7.4; details: buffer
[2] = Plasma protein binding in rat
[3] = biological target: T1, Tyrosine-protein kinase JAK1 (Homo sapiens, UniProt P23458); assay: Inhibition of human recombinant JAK1; details: read-out: IC50
T1 sequence (P23458 whole entry): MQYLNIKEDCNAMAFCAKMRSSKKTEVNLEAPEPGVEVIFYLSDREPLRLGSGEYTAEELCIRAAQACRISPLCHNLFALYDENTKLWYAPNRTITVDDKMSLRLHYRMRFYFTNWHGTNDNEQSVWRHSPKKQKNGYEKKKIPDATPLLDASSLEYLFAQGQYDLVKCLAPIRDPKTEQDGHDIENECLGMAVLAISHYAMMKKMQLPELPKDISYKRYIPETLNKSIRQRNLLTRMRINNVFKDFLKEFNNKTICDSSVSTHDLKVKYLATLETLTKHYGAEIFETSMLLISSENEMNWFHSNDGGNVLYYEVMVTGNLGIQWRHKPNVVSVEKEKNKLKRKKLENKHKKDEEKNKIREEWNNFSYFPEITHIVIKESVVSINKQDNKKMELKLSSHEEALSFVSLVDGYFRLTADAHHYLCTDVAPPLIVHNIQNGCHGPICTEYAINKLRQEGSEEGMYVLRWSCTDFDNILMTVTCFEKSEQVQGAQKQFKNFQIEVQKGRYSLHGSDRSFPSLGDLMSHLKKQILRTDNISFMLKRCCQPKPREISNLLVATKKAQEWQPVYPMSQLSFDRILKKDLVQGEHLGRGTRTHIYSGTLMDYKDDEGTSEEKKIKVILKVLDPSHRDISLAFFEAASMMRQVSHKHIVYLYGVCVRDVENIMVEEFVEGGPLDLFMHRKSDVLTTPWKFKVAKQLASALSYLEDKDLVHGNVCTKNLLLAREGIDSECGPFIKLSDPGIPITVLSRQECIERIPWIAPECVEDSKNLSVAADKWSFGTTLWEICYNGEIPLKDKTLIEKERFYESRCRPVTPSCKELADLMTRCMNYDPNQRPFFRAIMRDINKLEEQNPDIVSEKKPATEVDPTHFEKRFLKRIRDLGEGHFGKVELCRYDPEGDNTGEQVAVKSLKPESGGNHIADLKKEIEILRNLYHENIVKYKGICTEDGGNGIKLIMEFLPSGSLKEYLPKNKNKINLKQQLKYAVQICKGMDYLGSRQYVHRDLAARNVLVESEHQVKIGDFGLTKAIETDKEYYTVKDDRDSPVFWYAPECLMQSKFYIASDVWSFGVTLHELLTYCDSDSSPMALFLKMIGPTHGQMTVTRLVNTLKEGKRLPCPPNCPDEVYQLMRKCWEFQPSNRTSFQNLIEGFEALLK

[4] = species on record: Homo sapiens; assay: Selectivity index, ratio of IC50 for human recombinant JAK2 to IC50 for human recombinant JAK1
[5] = species on record: Homo sapiens; assay: Selectivity index, ratio of IC50 for human recombinant JAK3 to IC50 for human recombinant JAK1
[6] = species on record: Homo sapiens; assay: Selectivity index, ratio of IC50 for human recombinant TYK2 to IC50 for human recombinant JAK1
[7] = Metabolic stability in rat liver microsomes assessed as compound remaining after 60 mins; format: ADME; details: read-out: Stability
[8] = Tmax in rat at 5 mg/kg, po; format: ADME, organism-based; design: dose 5 mg/kg, route oral; details: in vivo
[9] = AUC (0 to infinity) in rat at 5 mg/kg, po; format: ADME, organism-based; design: time infinity, dose 5 mg/kg, route oral; details: plasma
[10] = Half life in rat at 5 mg/kg, po; format: ADME, organism-based; design: dose 5 mg/kg, route oral; details: in vivo
[11] = biological target: T1, Tyrosine-protein kinase JAK1; assay: Inhibition of JAK1 in human whole blood assessed as inhibition of IL-6-induced pSTAT1
[12] = biological target: Tyrosine-protein kinase JAK2 (Homo sapiens, UniProt O60674); assay: Inhibition of JAK2 in human whole blood assessed as inhibition of GM-CSF-induced pSTAT5
Chain of Tyrosine-protein kinase JAK2 (O60674 whole entry): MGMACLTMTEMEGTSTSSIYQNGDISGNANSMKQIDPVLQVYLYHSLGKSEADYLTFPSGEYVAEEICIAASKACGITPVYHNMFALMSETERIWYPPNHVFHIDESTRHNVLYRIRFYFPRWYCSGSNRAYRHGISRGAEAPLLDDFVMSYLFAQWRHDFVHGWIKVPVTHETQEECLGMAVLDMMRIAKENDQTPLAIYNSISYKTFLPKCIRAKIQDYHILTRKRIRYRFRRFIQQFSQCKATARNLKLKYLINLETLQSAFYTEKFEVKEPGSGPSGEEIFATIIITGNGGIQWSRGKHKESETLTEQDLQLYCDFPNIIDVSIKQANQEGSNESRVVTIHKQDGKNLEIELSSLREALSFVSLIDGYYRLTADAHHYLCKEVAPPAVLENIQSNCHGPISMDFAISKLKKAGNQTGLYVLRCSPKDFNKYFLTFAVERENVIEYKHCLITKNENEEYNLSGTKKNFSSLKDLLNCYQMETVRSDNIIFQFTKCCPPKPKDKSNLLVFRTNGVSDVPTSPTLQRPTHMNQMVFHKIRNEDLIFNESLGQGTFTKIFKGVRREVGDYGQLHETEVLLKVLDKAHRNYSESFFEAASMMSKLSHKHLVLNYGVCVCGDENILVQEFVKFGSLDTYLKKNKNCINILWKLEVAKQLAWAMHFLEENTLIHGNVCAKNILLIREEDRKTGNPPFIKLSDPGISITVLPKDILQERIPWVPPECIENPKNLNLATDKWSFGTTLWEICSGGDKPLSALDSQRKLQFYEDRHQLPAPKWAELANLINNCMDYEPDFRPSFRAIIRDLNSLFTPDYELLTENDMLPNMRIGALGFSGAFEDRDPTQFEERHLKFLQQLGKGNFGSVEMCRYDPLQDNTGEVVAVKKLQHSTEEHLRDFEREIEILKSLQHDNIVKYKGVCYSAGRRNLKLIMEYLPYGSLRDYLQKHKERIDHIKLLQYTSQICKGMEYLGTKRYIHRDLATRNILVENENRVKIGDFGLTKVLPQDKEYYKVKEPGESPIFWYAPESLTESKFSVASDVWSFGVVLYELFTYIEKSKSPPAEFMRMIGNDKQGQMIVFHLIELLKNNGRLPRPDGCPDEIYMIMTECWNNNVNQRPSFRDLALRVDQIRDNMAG

[13] = Cmax in rat at 5 mg/kg, po; format: ADME, organism-based; design: dose 5 mg/kg, route oral; details: in vivo
[14] = AUC (0 to infinity) in rat at 1 mg/kg, iv; format: ADME, organism-based; design: time infinity, dose 1 mg/kg, route intravenous; details: plasma
[15] = Half life in rat at 1 mg/kg, iv; format: ADME, organism-based; design: dose 1 mg/kg, route intravenous; details: in vivo
[16] = Cmax in dog at 1 mg/kg, iv; format: ADME, organism-based, Canis lupus familiaris; design: dose 1 mg/kg, route intravenous; details: in vivo
[17] = Cmax in dog at 5 mg/kg, po; format: ADME, organism-based, Canis lupus familiaris; design: dose 5 mg/kg, route oral; details: in vivo
[18] = Tmax in dog at 5 mg/kg, po; format: ADME, organism-based, Canis lupus familiaris; design: dose 5 mg/kg, route oral; details: in vivo
[19] = AUC (0 to infinity) in dog at 1 mg/kg, iv; format: ADME, organism-based, Canis lupus familiaris; design: time infinity, dose 1 mg/kg, route intravenous; details: plasma
[20] = AUC (0 to infinity) in dog at 5 mg/kg, po; format: ADME, organism-based, Canis lupus familiaris; design: dose 5 mg/kg, route oral, time infinity; details: plasma
[21] = Clearance in dog at 1 mg/kg, iv; format: ADME, organism-based, Canis lupus familiaris; design: dose 1 mg/kg, route intravenous; details: in vivo
[22] = Volume of distribution at steady state in dog at 1 mg/kg, iv; format: ADME, organism-based, Canis lupus familiaris; design: dose 1 mg/kg, route intravenous; details: in vivo, read-out: Vdss
[23] = Half life in dog at 1 mg/kg, iv; format: ADME, organism-based, Canis lupus familiaris; design: dose 1 mg/kg, route intravenous; details: in vivo
[24] = Half life in dog at 5 mg/kg, po; format: ADME, organism-based, Canis lupus familiaris; design: dose 5 mg/kg, route oral; details: in vivo
[25] = Oral bioavailability in dog at 1 mg/kg, iv and 5 mg/kg; format: ADME, organism-based, Canis lupus familiaris; details: in vivo
[26] = Metabolic stability in dog liver microsomes assessed as compound remaining after 60 mins; format: ADME, Canis lupus familiaris; details: read-out: Stability
[27] = Metabolic stability in human liver microsomes assessed as compound remaining after 60 mins; format: ADME; details: read-out: Stability
[28] = Half life in rat hepatocytes; format: ADME, cell-based, Hepatocyte
[29] = Half life in dog hepatocytes; format: ADME, cell-based, Canis lupus familiaris, Hepatocyte
[30] = Half life in human hepatocytes; format: ADME, cell-based, Hepatocyte
[31] = Permeability across apical to basolateral side in human Caco2 cells; format: ADME, cell-based; details: caco-2
[32] = Thermodynamic solubility in aqueous buffer solution at pH 3; format: physicochemical
[33] = Thermodynamic solubility in aqueous buffer solution at pH 7.4; format: physicochemical
[34] = Plasma protein binding in dog; format: ADME, cell-free, Canis lupus familiaris; details: read-out: PPB (converted)
[35] = Plasma protein binding in human; format: ADME, cell-free; details: read-out: PPB (converted)
[36] = biological target: Cytochrome P450 1A2 (Homo sapiens, UniProt P05177); assay: Inhibition of CYP1A2 (unknown origin); format: ADME
Chain of Cytochrome P450 1A2 (P05177 whole entry): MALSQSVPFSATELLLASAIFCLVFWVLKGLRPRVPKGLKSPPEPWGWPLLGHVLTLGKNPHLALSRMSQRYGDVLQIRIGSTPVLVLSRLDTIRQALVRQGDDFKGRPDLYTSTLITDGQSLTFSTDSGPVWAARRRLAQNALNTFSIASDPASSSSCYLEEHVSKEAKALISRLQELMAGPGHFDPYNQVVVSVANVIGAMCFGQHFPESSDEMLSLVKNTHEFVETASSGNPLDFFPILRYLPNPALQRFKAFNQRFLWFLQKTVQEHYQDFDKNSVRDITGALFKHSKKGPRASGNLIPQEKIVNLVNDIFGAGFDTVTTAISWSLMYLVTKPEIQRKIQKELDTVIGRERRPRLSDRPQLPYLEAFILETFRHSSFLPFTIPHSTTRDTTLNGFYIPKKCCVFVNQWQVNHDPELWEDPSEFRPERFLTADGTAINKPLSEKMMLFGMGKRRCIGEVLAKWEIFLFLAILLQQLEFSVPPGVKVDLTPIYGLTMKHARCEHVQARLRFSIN

[37] = biological target: Cytochrome P450 2C9 (Homo sapiens, UniProt P11712); assay: Inhibition of CYP2C9 (unknown origin); format: ADME
Chain of Cytochrome P450 2C9 (P11712 whole entry): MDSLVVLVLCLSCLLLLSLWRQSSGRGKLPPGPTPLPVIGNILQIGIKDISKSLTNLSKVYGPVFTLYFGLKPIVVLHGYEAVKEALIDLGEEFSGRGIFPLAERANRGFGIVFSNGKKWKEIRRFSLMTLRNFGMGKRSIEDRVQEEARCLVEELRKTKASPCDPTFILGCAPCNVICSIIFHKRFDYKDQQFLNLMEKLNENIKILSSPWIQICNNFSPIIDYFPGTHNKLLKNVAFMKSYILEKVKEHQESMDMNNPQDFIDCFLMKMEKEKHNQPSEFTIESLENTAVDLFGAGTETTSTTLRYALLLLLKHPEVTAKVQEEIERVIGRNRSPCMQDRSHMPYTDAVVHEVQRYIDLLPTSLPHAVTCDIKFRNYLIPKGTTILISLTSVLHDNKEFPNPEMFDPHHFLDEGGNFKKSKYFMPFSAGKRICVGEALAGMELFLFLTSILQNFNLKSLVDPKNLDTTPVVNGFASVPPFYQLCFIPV

[38] = biological target: Cytochrome P450 2D6 (Homo sapiens, UniProt P10635); assay: Inhibition of CYP2D6 (unknown origin); format: ADME
Chain of Cytochrome P450 2D6 (P10635 whole entry): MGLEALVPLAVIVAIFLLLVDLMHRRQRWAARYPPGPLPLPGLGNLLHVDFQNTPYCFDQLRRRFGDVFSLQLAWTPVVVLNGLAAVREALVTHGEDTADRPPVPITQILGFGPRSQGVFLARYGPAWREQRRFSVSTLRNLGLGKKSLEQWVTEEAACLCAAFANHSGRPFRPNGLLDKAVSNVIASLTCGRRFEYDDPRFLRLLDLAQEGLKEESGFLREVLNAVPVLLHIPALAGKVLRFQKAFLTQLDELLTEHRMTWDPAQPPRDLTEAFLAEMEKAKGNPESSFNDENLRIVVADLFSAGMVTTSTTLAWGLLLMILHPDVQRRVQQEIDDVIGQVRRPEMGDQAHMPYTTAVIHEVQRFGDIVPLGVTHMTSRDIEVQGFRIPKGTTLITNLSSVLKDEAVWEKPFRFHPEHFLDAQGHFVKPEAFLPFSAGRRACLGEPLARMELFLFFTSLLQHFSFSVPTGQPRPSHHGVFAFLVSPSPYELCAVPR

[39] = biological target: Cytochrome P450 2C19 (Homo sapiens, UniProt P33261); assay: Inhibition of CYP2C19 (unknown origin); format: ADME
Chain of Cytochrome P450 2C19 (P33261 whole entry): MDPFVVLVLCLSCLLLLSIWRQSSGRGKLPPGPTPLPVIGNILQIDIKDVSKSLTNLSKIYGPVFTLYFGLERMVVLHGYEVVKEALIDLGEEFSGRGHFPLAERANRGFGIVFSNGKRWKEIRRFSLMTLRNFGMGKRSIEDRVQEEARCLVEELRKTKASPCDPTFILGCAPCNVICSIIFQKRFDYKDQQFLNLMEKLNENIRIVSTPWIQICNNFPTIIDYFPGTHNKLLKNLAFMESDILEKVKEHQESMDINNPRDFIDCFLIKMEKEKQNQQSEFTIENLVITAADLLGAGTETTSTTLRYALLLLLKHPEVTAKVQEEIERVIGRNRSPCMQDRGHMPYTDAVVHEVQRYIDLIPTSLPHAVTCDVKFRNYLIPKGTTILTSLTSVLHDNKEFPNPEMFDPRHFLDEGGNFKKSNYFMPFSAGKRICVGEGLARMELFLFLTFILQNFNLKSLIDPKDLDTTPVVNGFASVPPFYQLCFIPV

[40] = tested on: Rattus norvegicus; assay: Antiinflammatory activity in po dosed rat collagen-induced arthritis model assessed as reduction in clinical score measured up to day 15; format: functional, organism-based
[41] = tested on: Rattus norvegicus; assay: Antiinflammatory activity in rat collagen-induced arthritis model assessed as reduction in clinical score at 0.1 mg/kg, po measured up to day 15; format: functional, organism-based; design: dose 0.1 mg/kg
[42] = tested on: Rattus norvegicus; assay: Antiinflammatory activity in rat collagen-induced arthritis model assessed as reduction in clinical score at 0.3 mg/kg, po measured up to day 15; format: functional, organism-based; design: dose 0.3 mg/kg
[43] = biological target: Jak1 protein (Rattus norvegicus, UniProt Q5FVF5); assay: Inhibition of rat JAK1
Chain of Jak1 protein (Q5FVF5 whole entry): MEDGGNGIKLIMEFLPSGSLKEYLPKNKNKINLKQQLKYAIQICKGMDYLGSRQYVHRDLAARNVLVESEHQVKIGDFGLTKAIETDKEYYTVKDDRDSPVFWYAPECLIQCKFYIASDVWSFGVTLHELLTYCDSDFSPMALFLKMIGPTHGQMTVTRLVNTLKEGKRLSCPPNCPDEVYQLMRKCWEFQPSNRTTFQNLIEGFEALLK

SMILES: O=C(NCCc1ccn(-c2ccccc2)n1)c1ccc(-c2cccc3nc(NC(=O)C4CC4)nn23)cc1
solubility kinetic [1]: 4 µg/mL (≈ 8.14 µM)
fraction unbound [2]: 0.01
IC50 [3]: 0.0006 µM
Ratio IC50 [4]: 5.3
Ratio IC50 [5]: 21
Ratio IC50 [6]: 66

SMILES: O=C(Nc1nc2cccc(-c3ccc(CN4CCC(F)(F)CC4)cc3)n2n1)C1CC1
solubility kinetic [1]: 27 µg/mL (≈ 65.6 µM)
fraction unbound [2]: 0.3
Tmax [8]: 0.25 h
AUC(0-inf) [9]: 690 ng·h/mL
half-life [10]: 0.92 h
IC50 [11]: 2.75 µM
IC50 [12]: > 10 µM
remaining at 1 h [7]: 26%
IC50 [3]: 0.027 µM
Ratio IC50 [4]: 1.1
Ratio IC50 [5]: 8.7
Ratio IC50 [6]: 3.2

SMILES: O=C(Nc1nc2cccc(-c3ccc(CNC(=O)C(F)(F)F)cc3)n2n1)C1CC1
solubility kinetic [1]: > 80 µg/mL
fraction unbound [2]: 0.17
IC50 [11]: 4.47 µM
IC50 [12]: > 30 µM
remaining at 1 h [7]: 80%
IC50 [3]: 0.016 µM
Ratio IC50 [4]: 2.6
Ratio IC50 [5]: 9.5
Ratio IC50 [6]: 6.2

Further lines, with some results ahead:

remaining at 1 h [7]: 27%
SMILES: C[C@@H]1CCN(C(=O)CC#N)C[C@@H]1N(C)c1ncnc2[nH]ccc12 [TOFACITINIB]

solubility kinetic [1]: 9.4 µg/mL (≈ 22.2 µM)
fraction unbound [2]: 0.01
IC50 [3]: 0.0014 µM
Ratio IC50 [4]: 11.4
Ratio IC50 [5]: 26
Ratio IC50 [6]: 9
SMILES: N#CCc1ccccc1NCc1ccc(-c2cccc3nc(NC(=O)C4CC4)nn23)cc1

solubility kinetic [1]: > 85 µg/mL
fraction unbound [2]: 0.525
Cmax [13]: 310 ng/mL
Tmax [8]: 2.2 h
AUC(0-inf) [14]: 739 ng·h/mL
AUC(0-inf) [9]: 1680 ng·h/mL
half-life [15]: 1.6 h
half-life [10]: 3.9 h
Cmax [16]: 1140 ng/mL
Cmax [17]: 1810 ng/mL
Tmax [18]: 1.5 h
AUC(0-inf) [19]: 4100 ng·h/mL
AUC(0-inf) [20]: 13900 ng·h/mL
clearance [21]: 4.17 mL/min/kg
Vd [22]: 1.7 L/kg
half-life [23]: 7.5 h
half-life [24]: 5.2 h
bioavailability [25]: 67%
remaining at 1 h [7]: 65%
remaining at 1 h [26]: 45%
remaining at 1 h [27]: 87%
half-life [28]: 3.33 h
half-life [29]: 3.33 h
half-life [30]: 3.33 h
permeability [31]: 3.5 ×10⁻⁶ cm/s
Therm solubility [32]: 243 µg/mL
Therm solubility [33]: 40 µg/mL
fraction unbound [34]: 0.711
fraction unbound [35]: 0.682
IC50 [36]: > 70 µM
IC50 [37]: > 70 µM
IC50 [38]: > 70 µM
IC50 [39]: > 70 µM
IC50 [43]: 0.029 µM
SMILES: O=C(Nc1nc2cccc(-c3ccc(CN4CCS(=O)(=O)CC4)cc3)n2n1)C1CC1 [FILGOTINIB]
inhibition [40]: Dose-dependent effect
inhibition [41]: Active
inhibition [42]: Active
